Patent US9394352B2, “Immunogenic POTE peptides and methods of use” (The United States of America, as represented by the …, priority 2010, dated 2016)
“Also recorded” adds a separate entry of the source. Where no end group is shown, it is not given here.

Tests used:
[1] = tested on: IFN-γ secreting spleen cells; test: ex vivo IFN-γ ELISPOT assay on splenocytes of peptide-immunized AAD mice; type: in vivo; conditions: for IFN-γ response (ELISPOT spots) on stimulation with the immunizing peptide: AAD mice immunized s.c., splenocytes pooled from three mice two weeks after boost
Protocol: (§1) FIGS. 3A and 3B are graphs showing immunogenicity of the wild type and enhanced POTE 252 epitopes in AAD mice. AAD mice were immunized subcutaneously with a mixture of peptide and cytokines in adjuvant as described in Example 1. (FIG. 3A) Two weeks after the second boost, splenocytes pooled from three mice were restimulated with splenocytes of naïve AAD mice pulsed with 1.0 μM of each peptide at different effector to target (E/T) ratios. Cells were cultured in anti-mouse IFN-γ antibody coated ELISPOT™ plates. After overnight culture, biotinylated anti-mouse IFN-γ antibodies were added to each well. ELISPOT™ substrates were added to develop the color and spots were counted by an ELISPOT™ reader (AID ELISPOT™ reader system). Figures show numbers of spots per million cells. (FIG. 3B) CTL cross-reactivity on each peptide. Two weeks after the second boost, pooled spleen cells from three mice were restimulated with irradiated splenocytes pulsed with 1.0 μM of peptide for 7 days. In a 4-hour ^51Cr release assay, CIR.AAD cells were pulsed with 1.0 μM of peptide and labeled with ^51Cr. After washing three times, target cells were mixed with different numbers of effector cells and then cultured for 4 hours before harvesting.
(§2) FIGS. 4A-4D are graphs showing immunogenicity of the wild type and enhanced POTE 553 epitopes in AAD mice. AAD mice were immunized subcutaneously with a mixture of peptide and cytokines in adjuvant. (FIGS. 4A and 4B) Two weeks after the second boost, splenocytes pooled from three mice were restimulated with splenocytes of naïve AAD mice pulsed with 10 nM to 1.0 μM of each peptide at different E/T ratios. Cells were cultured in anti-mouse IFN-γ antibody coated ELISPOT™ plates. After overnight culture, biotinylated anti-mouse IFN-γ antibodies were added to each well. ELISPOT™ substrates were added to develop color and spots were counted by an ELISPOT™ reader (AID ELISPOT™ reader system). Figures show numbers of spots per million cells. (FIGS. 4C and 4D) CTL cross-reactivity on each peptide. Two weeks after the second boost, pooled spleen cells from three mice were restimulated with irradiated splenocytes pulsed with 1.0 μM of peptide for 7 days. In a 4-hour ^51Cr release assay, CIR.AAD cells were pulsed with 1.0 μM of peptide and labeled with ^51Cr. After washing three times, target cells were mixed with different numbers of effector cells and then cultured for 4 hours before harvesting.
(§3) FIGS. 5A and 5B are graphs showing immunogenicity of the POTE 272 epitope in AAD mice. AAD mice were immunized subcutaneously with a mixture of peptide and cytokines in adjuvant. (FIG. 5A) Two weeks after the second boost, splenocytes pooled from three mice were restimulated with splenocytes of naïve AAD mice pulsed with 1.0 μM POTE 272 peptide at different E/T ratios. Cells were cultured in anti-mouse IFN-γ antibody coated ELISPOT™ plates. After overnight culture, biotinylated anti-mouse IFN-γ antibodies were added in each well. ELISPOT™ substrates were added to develop color and spots were counted by an ELISPOT™ reader (AID ELISPOT™ reader system). Figures show numbers of spots per million cells. (FIG. 5B) CTL reactivity on POTE 272 peptide. Two weeks after the second boost, pooled spleen cells from three mice were restimulated with irradiated splenocytes pulsed with 1.0 μM POTE 272 peptide for 7 days. In a 4-hour ^51Cr release assay, CIR.AAD cells were pulsed with 1.0 μM POTE 272 peptide and labeled with ^51Cr. After washing three times, target cells were mixed with different numbers of effector cells and then cultured for 4 hours before harvesting.
(§4) FIGS. 6A and 6B are graphs showing immunogenicity of the wild type and enhanced POTE 323 epitopes in AAD mice. AAD mice were immunized subcutaneously with a mixture of peptide and cytokines in adjuvant. (FIG. 6A) Two weeks after the second boost, splenocytes pooled from three mice were restimulated with splenocytes of naïve AAD mice pulsed with 1.0 μM of each peptide at different E/T ratios. […]

[2] = molecular target: T1, HLA-A2 molecule (Homo sapiens, UniProt P04439, D140Y/D185E/D98H/E176V/E277Q/G131W/G231S/I119V/I121R/I166T/I218V/L300P/L318F/N151K/N90K/P208A/P217A/Q86G/Q94H/R138H/R169H/T345S); test: T2 binding assay (HLA-A2 up-regulation on TAP-deficient T2 cells); conditions: for FI0.5: peptide concentration that increases HLA-A2.1 expression by 50% over no peptide; for binding affinity for the HLA-A2 molecule (in words): T2 binding assay
T1 construct: The T2 cell line is deficient for TAP1 and TAP2 transporter proteins and expresses low levels of HLA-A2; endogenous in cells; host or cells: T2 cell line (TAP1/TAP2-deficient)
Protocol: FIG. 1 is a graph showing binding affinity of POTE peptides to HLA-A2 molecules. Peptides were dissolved in DMSO in double-distilled water and different concentrations of peptides were added into the culture of TAP-deficient T2 cells. After overnight culture of the cells in medium supplemented with β2-microglobulin, cells were stained with anti-HLA-A2. HLA-A2 expression was quantified as fluorescence index (FI) according to the following formula: FI=[(mean fluorescence intensity with peptide−mean fluorescence intensity without peptide)/mean fluorescence intensity without peptide]. Background fluorescence without BB7.2 was subtracted for each individual value. To compare the different peptides, FI0.5 (the peptide concentration that increases HLA-A2.1 expression by 50% over no peptide control background) was calculated from the titration curve for each peptide.
FIGS. 2A-2C are graphs showing binding affinity of substituted POTE peptides to HLA-A2 molecules. Shown are binding affinities of the substituted POTE 252 peptides (FIG. 2A), the substituted POTE 553 peptides (FIG. 2B) and the substituted POTE 323 peptides (FIG. 2C) to HLA-A2 molecules. Different concentrations of peptides were added into the culture of TAP-deficient T2 cells. After overnight culture of the cells in medium supplemented with β2-microglobulin, cells were stained with anti-HLA-A2 antibody.
Peptide binding capacity to the HLA-A2 molecule was measured by using the T2 cell line according to a protocol described previously (Peters et al., Bioinformatics 19(14):1765-1772, 2003). T2 cells (3×10^5 cells/well) were incubated overnight in 96-well plates with culture medium (1:1 mixture of RPMI 1640/Eagle-Hank's amino acid containing 2.5% fetal bovine serum, 100 U/ml penicillin, and 100 μg/ml streptomycin) with 10 μg/ml β2-microglobulin (Sigma) and different titrated concentrations of peptides (starting from 100 μM with 2-fold serial dilution) as shown in the figures to determine the concentration giving a 50% increasing in binding. Cells were washed once with cold HBSS containing 0.1% BSA and incubated for 30 minutes at 4° C. with anti-HLA-A2.1 BB7.2 monoclonal antibody (1:40 dilution from hybridoma supernatant). After washing, cells were stained with FITC-labeled goat anti-mouse immunoglobulin (BD, San Jose, Calif.), and the level of HLA expression was measured by flow cytometry. HLA-A2 expression was quantified as fluorescence index (FI) according to the following formula: FI=[(geometric mean fluorescence intensity with peptide-geometric mean fluorescence intensity without peptide)/geometric mean fluorescence intensity without peptide]. Background fluorescence without BB7.2 was subtracted for each individual value. To compare the different peptides, FI0.5, the peptide concentration that increases HLA-A2.1 expression by 50% over no peptide control background, was calculated from the titration curve for each peptide.

[3] = tested on: C1R.AAD cells pulsed with peptide; test: 4-hour 51Cr release CTL assay after one week in vitro stimulation; type: cell-based, human; conditions: CTLs from immunized AAD mice, restimulated 7 days with 1.0 μM peptide; targets pulsed with 1.0 μM peptide
Protocol: as §1, §2, §3, §4

[4] = tested on: NCI-H522 cells (POTE+/HLA-A2); test: CTL cytotoxicity against human cancer cells; type: cell-based; conditions: HHD-2 mice immunized with 50 nmol peptide, restimulated 7 days with 1000 nM peptide; POTE-expressing NCI-H522 human lung cancer cells
Protocol: FIGS. 8A-8B are graphs showing anti-tumor cytotoxicity induced by enhanced POTE epitopes. AAD mice were immunized s.c. with 50 nmol of peptide in 100 μl of emulsion. (FIG. 8A) Anti-tumor cytotoxicity against a POTE-expressing human lung cancer cell line NCI-H522 induced by POTE 553-1Y, 323-3F and 252-9V. HHD-2 mice were immunized with 50 nmol of peptide in 100 μl of emulsion and restimulated for 7 days with 1000 nM peptide before being tested for ability to lyse the tumor cells. (FIG. 8B) Summary of the anti-tumor cytotoxicity in POTE-expressing and non-POTE-expressing human tumor cells. NCI-H522 is a human lung cancer line expressing both POTE and HLA-A2, whereas HTB-19 is a human mammary carcinoma that expresses POTE but not HLA-A2, and MDA-MB-231 is a human mammary carcinoma cell line expressing HLA-A2 but not POTE.
AAD or HHD-2 mice were immunized subcutaneously (s.c.) in the base of the tail with 100 μl of an emulsion containing 1:1 incomplete Freund's adjuvant (Sigma) and PBS with peptides and cytokines (50 nmol of CTL epitope, 50 nmol of hepatitis B virus core 128-140 helper epitope, 5 μg of mouse interleukin-12, and 5 μg of mouse granulocyte macrophage colony-stimulating factor). Cytokines were purchased from Peprotech (Rocky Hill, N.J.). Mice were boosted 2 weeks later, and the spleens were removed 2 weeks after the boost. For all experiments, groups of three mice were used.
Splenocytes from the immunized mice were re-stimulated with peptide-loaded splenocytes (1 μM, or 10 nM). On day 1 and day 5, rat T STIM™ (BD Bioscience) was added as a source of IL-2. One week later, CTL activity was measured by using a 4-hour ^51Cr releasing assay. […] The percentage of specific ^51Cr release is calculated as 100× [(experimental release-spontaneous release)/(maximum release-spontaneous release)]. Spontaneous release is determined from target cells incubated without effector cells, and maximum release is determined in the presence of 5% triton-X. C1R.AAD or C1R.A2.1 cell lines were used as targets. […]

[5] = substituted peptides and their wild types, Table 2 / FIGS. 2A-2C
[6] = wild-type peptides, Table 1 / FIG. 1

Sequence | IFN-γ response (ELISPOT spots) on stimulation with the immunizing peptide [1] | FI0.5 [2, 5] | CTL lysis of peptide-pulsed target cells [3] | anti-tumor cytotoxicity of peptide-induced CTLs [4] | IFN-γ response over background level ([1]; AAD mice, ELISPOT) | binding affinity for the HLA-A2 molecule (in words) [2] | FI0.5 [2, 6] | IFN-γ ELISPOT cross-reactive response to the wild type peptide ([1]; AAD mice immunized s.c. with the enhanced peptide)
YLMAKALLL [POTE 252-1Y, modified POTE 252 peptide, tyrosine at position 1] | no significant IFN-γ responses were detected | 0.9 µM | not detectable | – | – | – | – | –
KLMAKALLV [POTE 252-9V] | – | – | – | did not kill POTE-expressing cancer cells | – | – | – | –
LLLEQNVDV [POTE 323-331, unmodified 9-mer peptide, residues 323-331 of human POTE] | induced some IFN-γ responses after stimulation with the identical peptide | 0.3 µM | did not lyse target cells pulsed with POTE 323 | – | less than 2 fold | intermediate binders; also recorded: strongest binding affinity | ~0.8 µM | –
KLLEEIESV [POTE 553-2L, modified POTE 553 peptide, leucine at position 2] | induced some extent of IFN-γ responses only after stimulation with the same peptide | 0.1 µM | did not lyse target cells pulsed with POTE 553-2L | – | – | – | – | no cross-reactive response to wild type peptide was detected
LLFEQNVDV [POTE 323-3F] | – | – | – | produced significant cytotoxicity to lyse NCI-H522 cells | – | – | – | –
YILEEIESV [POTE 553-1Y] | – | – | – | produced significant cytotoxicity to lyse NCI-H522 cells | – | – | – | –
KILEEIESV [POTE 553-561, unmodified 9-mer peptide, residues 553-561 of human POTE] | did not induce any significant IFN-γ responses | 2.6 µM | not any significant detectable target cell lysis | – | – | strongest HLA-A2 binding affinity; also recorded: intermediate binders | ~5.6 µM | –
GLTPLLLGV [POTE 272-280, unmodified 9-mer peptide, residues 272-280 of human POTE] | induced significant IFN-γ responses | – | lysed target cells pulsed with POTE 272 | – | – | strongest HLA-A2 binding affinity | ~0.9 µM | –
